Reference: US7030287B2, “Method of decreasing nitrate nitrogen and volatile organic compound in soil and groundwater” (Matsushita Electric Industrial Co., Ltd., priority 2001, dated 2006)

test: Well experiment in soil polluted with tetrachloroethylene (Example 8): analysis of water collected from the well; conditions: 30 kg added over 6 days, initial about 0.25 mg/L
Method: In the method of decreasing nitrate nitrogen and volatile organic compounds in Example 8, an experiment was conducted using a well provided in soil polluted with tetrachloroethylene.
It had been known by previous investigation that about 125 m^2 of the surface of soil was polluted, and a water-containing layer at a position 6 m below the ground surface was polluted. In this water-containing layer, the tetrachloroethylene concentration was about 0.25 mg/L.
30 kg of stearylamine was gradually added over 6 days through a well in the polluted soil, and the tetrachloroethylene concentration, total carbon concentration and total nitrogen concentration after 90 days were analyzed from water collected from the well.

**Q.** With `CCCCCCCCCCCCCCCCCCN` [stearylamine] as the compound, how does the “tetrachloroethylene concentration after 90 days” value read?
**A.** 0.08 mg/L

test: Column experiment (Example 3): nitrate-polluted well water passed through column filled with material; conditions: well water (nitrate nitrogen 14 mg/L) after column, passing time 5.5 hours, 21° C.
Description: FIG. 3 is a view showing the structure of a column experiment apparatus used for effecting the method of decreasing nitrate nitrogen and volatile organic compounds in Example 3. Here, the column is a vessel having a function of decreasing nitrate nitrogen and volatile organic compounds, and decreases nitrate nitrogen and volatile organic compounds by allowing groundwater such as well water and the like to pass. In Example 3, a resin column having a diameter of 28 cm and a height of 2 m was used.
Well water evacuated from a well 23 by a pump 24 flow into this column 21 through an introduction port 25 of the column 21. It is so constituted that well water which comes into with the experiment material 22 while rising in the column 21, is discharged from an outflow port 26 formed at the upper part of the column 21.
Column experiments were conducted as described below using the column experiment apparatus constituted as described above.
From already-provided well polluted with nitrate nitrogen (nitrate nitrogen concentration: 14 mg/L), well water was evacuated by a pump 24 and allowed to flow into the column 21. In Example 3, six resin columns having a diameter of 28 cm and a height of 2 m were used, and experiments were conducted on 12 kinds of experiment materials using the resin columns each twice.
In the examples, experiment materials of the present invention such as fatty acids and alcohols were filled in columns (column Nos. 1 to 8) and comparative materials of conventional technologies were filled in columns (column Nos. 9 to 12) for comparison, and the evacuated groundwater was passed through them. In these experiments, substantial filling heights of the experiment materials in the columns were all 1.8 m. The passing time of groundwater in the column was 5.5 hours, and the average environment temperature during the experiment period was 21° C.
The nitrate nitrogen concentration, ammonia nitrogen concentration and total carbon concentration of the well water after passing through the column 30 days after initiation of passing of well water which is experiment initiation were measured.

**Q.** With `CCCCCCCCCCCCCCCCCCCCCC(=O)O` [Behenic acid] as the compound, how does the “Nitrate nitrogen concentration after 30 days” value (“Nitrate nitrogen concentration” below) read?
**A.** 1.8 mg/L

**Q.** With `CCCCCCCCCCCCCCCCCC(=O)OC` [Methyl stearate] as the compound, how does the “Nitrate nitrogen concentration” value read?
**A.** 1.4 mg/L

**Q.** With `CCCCCCCCCCCCCCO` [Myristyl alcohol] as the compound, how does the “Nitrate nitrogen concentration” value read?
**A.** 2.5 mg/L

**Q.** For `OC[C@H]1O[C@@](CO)(O[C@H]2O[C@H](CO)[C@@H](O)[C@H](O)[C@H]2O)[C@@H](O)[C@@H]1O` [Sucrose, reference compound], which “Nitrate nitrogen concentration” value is on record?
**A.** 15.0 mg/L

**Q.** With Sorbitan monomyristate as the compound, how does the “Nitrate nitrogen concentration” value read?
**A.** 1.6 mg/L
